Values quoted from earlier work as cited in patent publication US20190209710A1, “[…] AND CHEWING GUM […] A […] FOR THE TASTE-BASED DETECTION OF VIRUSES” (Julius-Maximilians-Universitaet Wuerzburg, priority 2016, published 2019).

Legend:
bacterial sialidases = conditions: literature: Beau et al., Eur. J. Biochem., 106 (1980) 531-540
viral sialidases = conditions: literature: Beau et al., Eur. J. Biochem., 106 (1980) 531-540

CO[C@H]1CC(O)(C(=O)O)O[C@@H]([C@H](O)[C@H](O)CO)[C@@H]1NC(C)=O (some centres unmarked) [4-methoxy-Neu5Ac]
cleavage by bacterial sialidases (bacterial sialidases): not cut | cleavage by viral sialidases (viral sialidases): very quickly
